{
  "source": "paper PMC10315211",
  "about": "(Molecular microbiology, 2023)",
  "target": "Rv0805 (N-His-Rv0805) (Mycobacterium tuberculosis, UniProt P9WP65)",
  "sequence (P9WP65 whole entry)": "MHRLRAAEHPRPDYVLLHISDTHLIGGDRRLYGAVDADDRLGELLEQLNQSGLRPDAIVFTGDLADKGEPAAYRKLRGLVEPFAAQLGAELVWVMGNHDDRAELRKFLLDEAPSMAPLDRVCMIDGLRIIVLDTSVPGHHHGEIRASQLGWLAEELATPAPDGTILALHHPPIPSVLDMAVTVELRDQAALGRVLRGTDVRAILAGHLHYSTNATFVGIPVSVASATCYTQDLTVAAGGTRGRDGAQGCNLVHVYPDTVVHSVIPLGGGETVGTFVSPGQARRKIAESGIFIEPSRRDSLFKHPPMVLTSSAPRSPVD",
  "data": [
    {"smiles": "C[N+](C)(C)CCOP(=O)([O-])OC[C@H](O)CO", "note": "[glycerophosphocholine]", "values": [
      {"measurement": "choline oxidase / HRP coupled Amplex Red fluorometric assay", "value": "both Rv0805 and CpdAEc produced choline and Gly3P from glycerophosphocholine (GPC)"}
    ]}
  ]
}
